Results published in ChEMBL document CHEMBL1201862, “PubChem BioAssay data set” (2004).
Activity calls are given as the source filed them.

Experiments:
[1] = HEK-293T cell viability reduction – luminescence, B-cell screen hits, cytotoxicity control for BCR NF-kB inhibitor project, dose response (AID 489021); type: functional, cell-based;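 also: HEK-293T cells carrying an NF-kB luciferase reporter; cells exposed to compound for about 14 hours before viability readout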
[2] = target: Nucleotide-binding oligomerization domain-containing protein 2 (Homo sapiens, UniProt Q9HC29); experiment: inhibition of NOD2-driven NF-kB reporter – cell-based, luminescence, uHTS, HEK293 (AID 1566); type: functional
INS1 = experiment: INS-1E survival protection against cytokine death – cell-based, luminescence, retest, dose response (AID 449756); type: functional; settings: Rattus norvegicus, INS1;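 also: cell death triggered by IL-1 beta plus TNF-alpha plus IFN-gamma mixture; protective hits raise ATP signal compared with cytokine alone wells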
[3] = fluconazole-exposed Candida albicans growth modulators – fluorescence, retest, confirmation (AID 2467); type: functional, cell-based
HEK293 [4] = experiment: cells; type: functional, cell-based; settings: Homo sapiens
HEK293 [5] = experiment: cells; type: functional, cell-based; settings: Homo sapiens; remark: listed apart in the source
HEK293 [6] = experiment: NOD2 signaling inhibitors in MDP-stimulated cells, cell-based, uHTS, luminescence (AID 2001); type: functional; settings: Homo sapiens
HEK293 [7] = experiment: cells; type: functional, cell-based; settings: Homo sapiens; remark: listed apart in the source
[8] = NIH-3T3 fibroblast cytotoxicity, dose response, cytotoxicity control, cell-based, fluorescence, Alamar Blue, secondary assay (AID 2327); type: functional;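 also: NIH-3T3 mouse fibroblasts cultured with fluconazole at 8 µg/mL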
HEK293 [9] = experiment: inhibition of NOD1-driven NF-kB reporter – cell-based, luminescence, uHTS, primary screen (AID 1578); type: functional; settings: Homo sapiens
Neutrophil collagenase = Neutrophil collagenase (Homo sapiens, UniProt P22894); experiment: potency against MMP13, MMP2, MMP3, MMP14 – biochemical, probe development, late stage results, selectivity assay for MMP13 inhibitor project, late-stage follow-up, panel member MMP-8 [IC50 Assay] (AID 2067)
[10] = microbe, parasite or virus in culture; type: functional; settings: Mycobacterium tuberculosis
[11] = target: Neurotensin receptor type 1 (Homo sapiens, UniProt P30989); type: functional;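 also: Image-based confirmatory dose-response assay measuring agonist activity at NTR1; NTR1-expressing U2OS osteosarcoma cells imaged for beta-arrestin GFP spot formation; agonist potency where compounds increase beta-arrestin recruitment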
[12] = target: T1, High affinity choline transporter 1 (Homo sapiens, UniProt Q9GZV3); experiment: human choline transporter blockers, potency – cell-based, 5-point CRC, membrane potential dye, dose response (AID 504840); type: functional
T1 sequence (Q9GZV3 whole entry): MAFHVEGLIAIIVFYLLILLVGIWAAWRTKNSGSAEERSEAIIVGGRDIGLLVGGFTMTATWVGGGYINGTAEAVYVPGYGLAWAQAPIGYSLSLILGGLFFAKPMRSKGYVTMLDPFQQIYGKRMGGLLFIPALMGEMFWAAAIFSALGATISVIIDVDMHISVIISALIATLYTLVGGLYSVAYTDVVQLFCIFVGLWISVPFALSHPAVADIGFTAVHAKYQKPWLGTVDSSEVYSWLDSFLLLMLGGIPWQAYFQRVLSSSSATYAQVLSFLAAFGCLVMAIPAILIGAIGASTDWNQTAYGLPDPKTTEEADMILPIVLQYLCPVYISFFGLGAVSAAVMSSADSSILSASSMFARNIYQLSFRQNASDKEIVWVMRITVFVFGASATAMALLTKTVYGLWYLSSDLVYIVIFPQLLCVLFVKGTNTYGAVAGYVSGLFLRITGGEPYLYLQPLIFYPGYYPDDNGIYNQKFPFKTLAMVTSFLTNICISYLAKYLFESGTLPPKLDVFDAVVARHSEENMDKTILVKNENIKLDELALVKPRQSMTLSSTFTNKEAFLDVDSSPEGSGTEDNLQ

cells = type: functional, cell-based; settings: PPC-1
MDA-MB-435 = experiment: cells; type: functional, cell-based; settings: Homo sapiens
X-box-binding protein 1 = X-box-binding protein 1 (Homo sapiens, UniProt P17861); type: functional, Cricetulus griseus;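 also: confirmatory dose-response counter-screen serving a CHOP assay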
[13] = target: DNA damage-inducible transcript 3 protein (Mus musculus, UniProt P35639); type: functional, Cricetulus griseus
[14] = target: NACHT, LRR and PYD domains-containing protein 3 (Homo sapiens, UniProt Q96P20); experiment: NALP3 inhibitors in yeast, dose response, luminescent (AID 488799); type: functional
[15] = Cytotoxicity screening for potential Inhibitors of Bacterial Capsule Biogenesis. [Related pubchem assays (depositor defined):AID488970]; type: functional
[16] = protection from phage-mediated lysis, alamar blue read-out – E. coli UTI89, K1F phage, bacterial capsule biogenesis inhibitors (AID 488966); type: functional
[17] = target: Voltage-dependent T-type calcium channel subunit alpha-1H (Homo sapiens, UniProt O95180); experiment: human CACNA1H calcium influx blockade – cell-based, synthetic library set 1, calcium flux (AID 493022); type: functional
[18] = blockers of SFLLRN-triggered platelet ATP secretion – cell-based, human platelets, luminescence, dry powder, dose response (AID 493100); type: functional
[19] = target: Metabotropic glutamate receptor 4 (Homo sapiens, UniProt Q14833); experiment: Modulation of the Metabotropic Glutamate Receptor mGluR4: Potency at human mGluR4. Modulation of intracellular Ca2+ using Fluo-4, AM, in CHO expressing recombinant receptor [Related pubchem assays (depositor defined):AID2437, AID2807]; type: functional, cell-based
[20] = target: Luciferin 4-monooxygenase (Photinus pyralis, UniProt P08659); experiment: inhibition of purified Photinus pyralis luciferase – biochemical, luminescence, dose response (AID 1891)
[21] = Luminescence Cell-Based Dose Confirmation HTS to Identify Inhibitors of Platelet Dense Granule Release. [Related pubchem assays: 1663 (Primary HTS), 1678 (Summary of Project)]; type: functional
SUMO-activating enzyme [22] = target: T2, SUMO-activating enzyme (Homo sapiens, UniProt Q9UBT2); experiment: blockers of SAE1/SAE2–UBC9 SUMO transfer – biochemical, HTRF, uHTS, primary screen (AID 2006); type: protein-complex assay
[23] = target: T3, Replicative DNA helicase DnaB (Mycobacterium tuberculosis, UniProt P9WMR3); experiment: DnaB intein splicing inhibitors, dose response, biochemical, cell-free fluorescence (AID 449749); type: functional
T3 sequence (P9WMR3 whole entry): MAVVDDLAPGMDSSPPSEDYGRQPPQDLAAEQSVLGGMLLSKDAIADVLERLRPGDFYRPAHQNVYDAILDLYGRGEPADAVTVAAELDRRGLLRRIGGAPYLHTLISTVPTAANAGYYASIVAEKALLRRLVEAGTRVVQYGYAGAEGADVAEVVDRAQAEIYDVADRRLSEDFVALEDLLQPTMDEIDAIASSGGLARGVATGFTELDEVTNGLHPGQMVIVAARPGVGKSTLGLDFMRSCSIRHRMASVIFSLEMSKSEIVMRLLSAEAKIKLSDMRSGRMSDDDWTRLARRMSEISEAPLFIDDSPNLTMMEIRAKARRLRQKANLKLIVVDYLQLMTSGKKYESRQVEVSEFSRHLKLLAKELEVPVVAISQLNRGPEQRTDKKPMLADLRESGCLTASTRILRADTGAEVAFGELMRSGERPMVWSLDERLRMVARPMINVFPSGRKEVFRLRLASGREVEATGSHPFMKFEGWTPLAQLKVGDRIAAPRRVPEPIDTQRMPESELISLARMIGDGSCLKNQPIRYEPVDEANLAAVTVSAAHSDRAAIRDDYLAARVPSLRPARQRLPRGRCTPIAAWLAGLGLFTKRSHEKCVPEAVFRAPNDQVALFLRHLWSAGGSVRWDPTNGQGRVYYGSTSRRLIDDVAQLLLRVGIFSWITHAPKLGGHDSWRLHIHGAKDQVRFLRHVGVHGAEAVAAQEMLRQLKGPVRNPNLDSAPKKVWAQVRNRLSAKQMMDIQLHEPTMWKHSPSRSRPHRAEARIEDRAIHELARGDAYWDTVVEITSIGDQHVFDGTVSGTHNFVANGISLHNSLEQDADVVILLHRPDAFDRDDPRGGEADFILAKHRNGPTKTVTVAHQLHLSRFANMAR

SUMO-activating enzyme [24] = target: T2, SUMO-activating enzyme; experiment: blockers of UBC9-mediated SUMO conjugation – biochemical, AlphaScreen, SUMOylation inhibitor project, confirmation (AID 2018); type: functional
Cytochrome P450 3A4 = Cytochrome P450 3A4 (Homo sapiens, UniProt P08684); settings: Potency;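 also: confirmatory qHTS run detecting inhibitors and substrates of CYP3A4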
Protein RecA = target: T4, Protein RecA (Mycobacterium tuberculosis, UniProt P9WHJ3); experiment: Fluorescence Cell-Free Homogeneous Dose Retest to Identify Inhibitors of RecA-Intein Splicing Activity. [Related pubchem assays (depositor defined):AID2097, AID2223, AID489010, AID492950]; type: functional
T4 sequence (P9WHJ3 whole entry): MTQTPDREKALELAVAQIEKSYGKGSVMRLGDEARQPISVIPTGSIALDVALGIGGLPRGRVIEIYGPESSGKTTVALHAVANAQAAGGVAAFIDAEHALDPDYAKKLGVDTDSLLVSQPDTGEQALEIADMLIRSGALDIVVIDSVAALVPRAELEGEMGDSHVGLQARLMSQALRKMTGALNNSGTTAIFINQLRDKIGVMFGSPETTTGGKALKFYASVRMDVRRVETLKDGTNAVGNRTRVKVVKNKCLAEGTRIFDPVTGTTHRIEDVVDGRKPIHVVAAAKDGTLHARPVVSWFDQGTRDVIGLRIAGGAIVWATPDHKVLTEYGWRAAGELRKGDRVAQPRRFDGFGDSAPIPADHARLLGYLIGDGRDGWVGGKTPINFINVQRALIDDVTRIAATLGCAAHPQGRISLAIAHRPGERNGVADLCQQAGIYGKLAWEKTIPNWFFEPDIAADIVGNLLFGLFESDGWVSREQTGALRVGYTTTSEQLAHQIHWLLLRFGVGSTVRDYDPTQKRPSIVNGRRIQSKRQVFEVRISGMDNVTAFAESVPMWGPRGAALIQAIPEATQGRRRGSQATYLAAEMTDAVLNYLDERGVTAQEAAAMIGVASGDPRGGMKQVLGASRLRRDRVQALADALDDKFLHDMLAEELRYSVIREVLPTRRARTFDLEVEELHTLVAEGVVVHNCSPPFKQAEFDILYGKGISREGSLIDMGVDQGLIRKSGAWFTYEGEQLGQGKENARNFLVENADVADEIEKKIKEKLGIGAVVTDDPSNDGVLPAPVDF

Genome polyprotein = Genome polyprotein (dengue virus type 2, UniProt P29990); experiment: flavivirus cap methylation enzyme inhibition – biochemical, confirmation dose response, primary screen (AID 588689); type: functional
[25] = target: Envelope glycoprotein gp160 (Human immunodeficiency virus 1, UniProt Q6QLK5); experiment: cell-free HIV fusion peptide-binding blockers – biochemical, uHTS, fluorescence dequenching, […] (AID 1986)

T2 sequence (Q9UBE0 whole entry): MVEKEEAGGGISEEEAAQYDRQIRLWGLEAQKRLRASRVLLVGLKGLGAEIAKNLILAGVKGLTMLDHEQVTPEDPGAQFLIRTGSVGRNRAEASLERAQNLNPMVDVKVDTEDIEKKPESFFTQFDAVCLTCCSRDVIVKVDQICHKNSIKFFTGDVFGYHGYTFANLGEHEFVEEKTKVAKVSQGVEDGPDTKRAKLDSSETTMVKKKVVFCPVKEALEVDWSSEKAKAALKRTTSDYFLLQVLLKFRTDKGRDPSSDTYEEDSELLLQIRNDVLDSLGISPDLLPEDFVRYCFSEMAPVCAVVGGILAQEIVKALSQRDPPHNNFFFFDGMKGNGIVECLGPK
T2 sequence (Q9UBT2 whole entry): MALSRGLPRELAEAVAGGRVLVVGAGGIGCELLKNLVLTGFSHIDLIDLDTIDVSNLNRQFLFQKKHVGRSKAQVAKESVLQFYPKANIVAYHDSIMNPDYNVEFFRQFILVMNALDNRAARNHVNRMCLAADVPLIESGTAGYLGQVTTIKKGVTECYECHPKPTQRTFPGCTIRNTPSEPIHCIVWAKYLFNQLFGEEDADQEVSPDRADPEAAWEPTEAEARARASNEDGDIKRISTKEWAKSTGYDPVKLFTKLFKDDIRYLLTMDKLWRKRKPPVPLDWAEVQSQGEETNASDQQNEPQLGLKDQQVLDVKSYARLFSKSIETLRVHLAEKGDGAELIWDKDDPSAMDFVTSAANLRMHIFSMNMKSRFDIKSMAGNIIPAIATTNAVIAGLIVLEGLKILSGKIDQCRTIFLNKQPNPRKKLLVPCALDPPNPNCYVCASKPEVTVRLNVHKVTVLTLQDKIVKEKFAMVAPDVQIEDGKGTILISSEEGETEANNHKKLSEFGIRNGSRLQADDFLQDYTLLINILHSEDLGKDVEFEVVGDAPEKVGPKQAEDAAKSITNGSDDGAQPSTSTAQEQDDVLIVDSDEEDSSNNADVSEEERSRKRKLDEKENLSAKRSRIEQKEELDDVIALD
Voltage-dependent T-type calcium channel subunit alpha-1H, sequence (O95180 whole entry): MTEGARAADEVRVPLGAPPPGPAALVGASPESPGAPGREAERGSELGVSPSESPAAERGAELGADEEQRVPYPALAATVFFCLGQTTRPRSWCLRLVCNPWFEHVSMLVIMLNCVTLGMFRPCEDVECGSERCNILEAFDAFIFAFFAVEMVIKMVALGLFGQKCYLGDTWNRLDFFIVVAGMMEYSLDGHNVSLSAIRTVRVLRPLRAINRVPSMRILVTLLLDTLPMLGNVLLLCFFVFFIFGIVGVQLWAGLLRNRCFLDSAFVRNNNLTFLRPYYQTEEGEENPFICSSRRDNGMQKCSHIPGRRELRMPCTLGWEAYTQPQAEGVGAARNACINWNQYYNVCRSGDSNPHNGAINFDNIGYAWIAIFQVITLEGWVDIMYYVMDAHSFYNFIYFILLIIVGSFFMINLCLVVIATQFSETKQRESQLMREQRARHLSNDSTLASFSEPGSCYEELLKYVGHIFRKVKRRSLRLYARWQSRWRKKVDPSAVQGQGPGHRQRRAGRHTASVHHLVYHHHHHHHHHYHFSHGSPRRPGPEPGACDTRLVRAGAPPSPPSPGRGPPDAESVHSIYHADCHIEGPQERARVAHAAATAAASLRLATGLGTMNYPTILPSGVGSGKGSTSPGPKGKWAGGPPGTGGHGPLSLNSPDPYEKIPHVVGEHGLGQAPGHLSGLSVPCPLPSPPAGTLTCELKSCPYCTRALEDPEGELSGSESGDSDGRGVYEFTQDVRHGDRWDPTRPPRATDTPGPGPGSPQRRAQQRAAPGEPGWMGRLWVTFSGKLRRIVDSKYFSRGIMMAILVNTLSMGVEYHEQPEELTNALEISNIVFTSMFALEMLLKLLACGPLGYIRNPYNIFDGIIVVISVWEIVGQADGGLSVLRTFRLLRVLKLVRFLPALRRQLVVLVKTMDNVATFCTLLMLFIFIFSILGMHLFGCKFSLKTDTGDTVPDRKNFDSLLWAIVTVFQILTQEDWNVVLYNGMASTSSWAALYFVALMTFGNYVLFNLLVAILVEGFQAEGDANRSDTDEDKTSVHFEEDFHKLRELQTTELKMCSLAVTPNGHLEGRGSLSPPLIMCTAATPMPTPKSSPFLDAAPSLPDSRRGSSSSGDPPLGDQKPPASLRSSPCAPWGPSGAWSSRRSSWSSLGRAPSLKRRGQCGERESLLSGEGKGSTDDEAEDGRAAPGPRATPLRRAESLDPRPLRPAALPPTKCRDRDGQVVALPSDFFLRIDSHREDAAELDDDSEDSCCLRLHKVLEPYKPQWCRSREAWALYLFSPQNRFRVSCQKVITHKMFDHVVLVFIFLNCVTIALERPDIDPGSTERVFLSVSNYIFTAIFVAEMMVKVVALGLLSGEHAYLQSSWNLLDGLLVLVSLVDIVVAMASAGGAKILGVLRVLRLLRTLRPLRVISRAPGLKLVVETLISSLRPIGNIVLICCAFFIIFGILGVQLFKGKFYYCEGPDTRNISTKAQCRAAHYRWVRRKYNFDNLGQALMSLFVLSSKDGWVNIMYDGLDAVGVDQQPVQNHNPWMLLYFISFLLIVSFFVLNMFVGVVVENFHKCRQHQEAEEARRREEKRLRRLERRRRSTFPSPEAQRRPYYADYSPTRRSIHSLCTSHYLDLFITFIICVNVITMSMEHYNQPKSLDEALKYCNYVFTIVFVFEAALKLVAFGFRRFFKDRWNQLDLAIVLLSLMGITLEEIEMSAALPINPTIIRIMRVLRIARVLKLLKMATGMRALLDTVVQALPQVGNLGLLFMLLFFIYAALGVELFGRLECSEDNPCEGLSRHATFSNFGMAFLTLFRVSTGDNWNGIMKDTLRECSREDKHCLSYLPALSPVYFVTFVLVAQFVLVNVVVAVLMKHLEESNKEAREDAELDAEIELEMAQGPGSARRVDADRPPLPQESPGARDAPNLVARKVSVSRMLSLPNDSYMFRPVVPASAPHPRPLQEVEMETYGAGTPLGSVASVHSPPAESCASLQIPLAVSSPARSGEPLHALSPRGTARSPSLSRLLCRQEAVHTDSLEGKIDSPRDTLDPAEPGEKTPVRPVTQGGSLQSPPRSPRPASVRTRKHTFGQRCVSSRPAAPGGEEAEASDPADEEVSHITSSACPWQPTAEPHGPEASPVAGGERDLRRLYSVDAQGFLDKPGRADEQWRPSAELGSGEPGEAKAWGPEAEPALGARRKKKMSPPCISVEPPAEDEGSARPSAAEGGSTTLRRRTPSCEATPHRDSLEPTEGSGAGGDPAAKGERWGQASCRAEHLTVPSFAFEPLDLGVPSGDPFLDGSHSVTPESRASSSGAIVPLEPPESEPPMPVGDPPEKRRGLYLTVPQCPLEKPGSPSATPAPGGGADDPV
Cytochrome P450 3A4, sequence (P08684 whole entry): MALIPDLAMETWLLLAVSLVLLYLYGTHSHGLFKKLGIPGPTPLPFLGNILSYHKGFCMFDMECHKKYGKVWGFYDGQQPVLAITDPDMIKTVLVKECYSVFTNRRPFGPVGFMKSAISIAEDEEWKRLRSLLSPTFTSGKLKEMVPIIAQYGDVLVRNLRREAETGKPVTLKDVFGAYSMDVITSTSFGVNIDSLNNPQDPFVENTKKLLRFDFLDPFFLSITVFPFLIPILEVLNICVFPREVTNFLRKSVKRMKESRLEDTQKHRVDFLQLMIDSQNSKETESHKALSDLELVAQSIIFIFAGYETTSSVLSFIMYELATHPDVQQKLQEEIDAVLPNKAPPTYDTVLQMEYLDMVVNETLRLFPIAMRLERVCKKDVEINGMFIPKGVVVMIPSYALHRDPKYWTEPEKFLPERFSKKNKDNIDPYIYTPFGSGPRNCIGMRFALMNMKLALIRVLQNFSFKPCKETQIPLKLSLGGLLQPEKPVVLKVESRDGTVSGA
Neutrophil collagenase, sequence (P22894 whole entry): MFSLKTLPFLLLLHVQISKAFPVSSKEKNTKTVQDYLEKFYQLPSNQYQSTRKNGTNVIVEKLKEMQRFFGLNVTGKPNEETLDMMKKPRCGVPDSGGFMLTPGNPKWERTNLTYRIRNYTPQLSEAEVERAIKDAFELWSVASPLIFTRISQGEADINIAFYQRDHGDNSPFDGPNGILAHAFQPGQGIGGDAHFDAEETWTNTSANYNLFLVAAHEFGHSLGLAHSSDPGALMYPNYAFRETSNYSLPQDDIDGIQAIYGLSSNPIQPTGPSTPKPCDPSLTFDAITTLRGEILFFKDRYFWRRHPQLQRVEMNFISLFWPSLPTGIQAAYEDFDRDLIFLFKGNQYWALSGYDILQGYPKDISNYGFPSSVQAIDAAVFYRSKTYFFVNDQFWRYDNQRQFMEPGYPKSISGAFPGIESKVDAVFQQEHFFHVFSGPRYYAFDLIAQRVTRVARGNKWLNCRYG
Neurotensin receptor type 1, sequence (P30989 whole entry): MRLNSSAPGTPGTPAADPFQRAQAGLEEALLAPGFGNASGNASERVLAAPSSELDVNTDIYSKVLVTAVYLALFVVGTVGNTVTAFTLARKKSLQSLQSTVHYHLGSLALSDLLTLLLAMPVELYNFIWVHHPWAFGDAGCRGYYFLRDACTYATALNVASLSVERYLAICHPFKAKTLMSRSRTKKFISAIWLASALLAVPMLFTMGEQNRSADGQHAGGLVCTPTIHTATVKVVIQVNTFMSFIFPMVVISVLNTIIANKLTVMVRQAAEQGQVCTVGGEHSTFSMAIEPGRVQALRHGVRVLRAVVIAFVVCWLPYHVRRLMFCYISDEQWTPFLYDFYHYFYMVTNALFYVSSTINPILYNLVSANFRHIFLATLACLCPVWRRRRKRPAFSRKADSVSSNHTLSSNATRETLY
X-box-binding protein 1, sequence (P17861 whole entry): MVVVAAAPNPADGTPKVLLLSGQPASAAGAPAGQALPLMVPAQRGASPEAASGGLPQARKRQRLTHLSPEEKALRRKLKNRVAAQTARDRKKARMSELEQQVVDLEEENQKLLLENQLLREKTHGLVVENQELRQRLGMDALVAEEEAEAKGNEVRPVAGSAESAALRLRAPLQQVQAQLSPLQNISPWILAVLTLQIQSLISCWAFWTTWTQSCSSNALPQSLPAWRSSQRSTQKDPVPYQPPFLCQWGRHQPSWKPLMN

Compound: COc1ccc(-c2n(Cc3ccccc3)c3ccccc3[n+]2Cc2ccccc2)cc1
- IC50 [1]: > 80 µM (inactive)
- EC50 [2]: 9.35 µM (active)
- AC50 (INS1): 3.85 µM (active)
- EC50 [3]: > 38 µM (not active)
- IC50 (HEK293 [4]): 11.7 µM (active)
- IC50 (HEK293 [5]): 1.21 µM (active)
- IC50 (HEK293 [6]): 3.69 µM (active)
- IC50 (HEK293 [7]): > 20 µM (inactive)
- EC50 [8]: > 150 µM (inactive)
- EC50 (HEK293 [9]): 4.23 µM (active)

Compound: Cc1ccc(CSc2nc3c(c(=O)[nH]2)CCC3)cc1
- IC50 (Neutrophil collagenase): > 39.8 µM (inactive)

Compound: COc1ccc(C(CCN2CCCCC2)c2c(OC)cc(OC)c3c(-c4ccccc4)cc(=O)oc23)cc1 (stereo not given)
- CC50 [10]: 20.5 µM (active)
- EC50 [11]: 14.7 µM (active)
- IC50 [12]: 12.6 µM (active)
- AC50 (INS1): 10.7 µM (active)

Compound: CSc1nc(-c2ccccc2)nc(C(C)C)n1
- IC50 (cells): > 10 µM (inactive)
- IC50 (MDA-MB-435): > 10 µM (inactive)

Compound: O=C(Nc1cccc(C(F)(F)F)c1)NC1CCN(S(=O)(=O)c2ccc(F)cc2)CC1
- Absolute IC50 (XBP1) (X-box-binding protein 1): 10 µM
- Absolute IC50 (CHOP) [13]: 10 µM

Compound: Cc1onc(-c2ccccc2Cl)c1C(=O)N1C=CC(C(F)(F)F)=NCC1
- IC50 [14]: 8.66 µM (active)

Compound: Cc1ccc(C2c3c(oc4cc(C)c(C)cc4c3=O)C(=O)N2CCCN2CCOCC2)cc1 (stereo not given)
- CC50 [15]: 44.4 µM (active)

Compound: O=C(Nc1ccc(N2CCOCC2)cc1)c1ccc2ncsc2c1
- IC50 [16]: > 150 µM (active)

Compound: O=C(COc1ccc(F)cc1)Nc1nnc(-c2ccc3c(c2)OCO3)o1
- EC50 [17]: 10 µM (active)

Compound: CCCC(=O)Nc1cccc(NC(=O)c2ccccc2F)c1
- AC50 [18]: 31.5 µM (active)

Compound: COc1ccc(NC(=O)c2ccccn2)cc1OC
- EC50 [19]: 3.65 µM (active)
- EC50 [20]: > 112 µM (not active)
- EC50 [21]: 42.7 µM (active)

Compound: CCCCCc1c2c(cc(O)c1C(=O)O)OC(=O)c1c(cc(OC)cc1C(=O)CCCC)O2 [LOBARIC ACID]
- IC50 (SUMO-activating enzyme [22]): 15.3 µM (active)
- AC50 [23]: 6.47 µM (active)
- IC50 (SUMO-activating enzyme [24]): 6.52 µM (active)
- AC50 (Cytochrome P450 3A4): 25.1 µM (inconclusive)
- IC50 [12]: 11 µM (active)
- EC50 (Protein RecA): 4.98 µM (active)
- IC50 (Genome polyprotein): 32.2 µM (active)
- IC50 [25]: 13.1 µM (active)
